Converted amounts (≈) assume the structure as drawn. Like-named read-outs stand apart in the source and are kept apart here.
Legend:
[1] = Solubility in PBS; type: physicochemical
Outline: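 The PBS solution was ultracentrifuged and the supernatant analyzed by HPLC. Its peak area was divided by that of a 50 μM peptide DMSO reference injection and multiplied by 50 uM to give solubility.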

[2] = CHI Log D procedure; type: physicochemical; conditions: for CHI Log D: pH 7.4

| Compound | Solubility [1] [µM] | CHI Log D [2] | Solubility ([1]; Solubility (uM)) [µM] | chromatographic logD ([2]; pH 7.4, CHI Log D) |
| --- | --- | --- | --- | --- |
| CC(=O)N1CCC[C@]12CC=CCCCC1(CCCC=CCCCCCC[C@@](C)(C(=O)N[C@@H](Cc3ccc(C(N)=O)cc3)C(=O)N[C@@H](Cc3csc4ccccc34)C(=O)N[C@@H](CCC(N)=O)C(N)=O)NC(=O)[C@H](C(C)C)NC(=O)[C@H](Cc3ccccc3)NC(=O)[C@H](C)NC(=O)[C@H](C)NC(=O)[C@H](CC(=O)O)NC(=O)[C@H](CC(=O)O)NC1=O)NC(=O)[C@H](C)NC(=O)[C@H](CC(=O)O)NC2=O (stereo partly drawn) [I-337, Ac-PL3-Asp-Ala-B5-Asp-Asp-Ala-Ala-Phe-Val-S8-4CBMF-BztA-Gln-NH2] | 48 (≈ 88.4 µg/mL) | 1.579 | – | – |
| CC(=O)N1CCC[C@]12CC=CCCCC1(CCCC=CCCCCCC[C@@](C)(C(=O)N[C@@H](Cc3ccc(C(N)=O)cc3)C(=O)N[C@@H](Cc3csc4ccccc34)C(=O)N[C@@H](CCC(N)=O)C(N)=O)NC(=O)[C@H](C(C)C)NC(=O)[C@H](Cc3ccccc3)NC(=O)[C@H](C)NC(=O)[C@H](C)NC(=O)[C@H](CC(=O)O)NC(=O)[C@H](CC(=O)O)NC1=O)NC(=O)[C@H](C)NC(=O)[C@H](CC(=O)O)NC2=O (stereo partly drawn) [I-338, Ac-PL3-Asp-Ala-B5-Asp-Asp-Ala-Ala-Phe-Val-S8-4CBMF-BztA-Gln-NH2] | 47 (≈ 86.5 µg/mL) | 1.586 | – | – |
| CC(=O)N1CCC[C@]12CC=CCCCC1(CCCC=CCCCCCC[C@@](C)(C(=O)N[C@@H](Cc3ccc(C(=O)O)cc3)C(=O)N[C@@H](Cc3csc4ccccc34)C(=O)N[C@@H](CCC(N)=O)C(N)=O)NC(=O)[C@H](C(C)C)NC(=O)[C@H](Cc3ccccc3)NC(=O)[C@H](C)NC(=O)[C@H](C)NC(=O)[C@H](CC(=O)O)NC(=O)[C@H](CC(=O)O)NC1=O)NC(=O)[C@H](C)NC(=O)[C@H](CC(=O)O)NC2=O (stereo partly drawn) [I-339, Ac-PL3-Asp-Ala-B5-Asp-Asp-Ala-Ala-Phe-Val-S8-4COOHF-BztA-Gln-NH2] | 50 (≈ 92.1 µg/mL) | 1.328 | – | – |
| CC(=O)N1CCC[C@]12CC=CCCCC1(CCCC=CCCCCCC[C@@](C)(C(=O)N[C@@H](Cc3ccc(C(=O)O)cc3)C(=O)N[C@@H](Cc3csc4ccccc34)C(=O)N[C@@H](CCC(N)=O)C(N)=O)NC(=O)[C@H](C(C)C)NC(=O)[C@H](Cc3ccccc3)NC(=O)[C@H](C)NC(=O)[C@H](C)NC(=O)[C@H](CC(=O)O)NC(=O)[C@H](CC(=O)O)NC1=O)NC(=O)[C@H](C)NC(=O)[C@H](CC(=O)O)NC2=O (stereo partly drawn) [I-340, Ac-PL3-Asp-Ala-B5-Asp-Asp-Ala-Ala-Phe-Val-S8-4COOHF-BztA-Gln-NH2] | 49 (≈ 90.3 µg/mL) | 1.341 | – | – |
| CC(=O)N1CCC[C@]12CC=CCCCC1(CCCC=CCCCCCC[C@@](C)(C(=O)N[C@@H](Cc3ccccc3)C(=O)N[C@@H](Cc3csc4ccccc34)C(=O)N[C@@H](CCC(N)=O)C(N)=O)NC(=O)[C@H](C)NC(=O)[C@H](Cc3c[nH]cn3)NC(=O)[C@H](C)NC(=O)[C@H](C)NC(=O)[C@H](CC(=O)O)NC(=O)[C@H](CC(=O)O)NC1=O)NC(=O)[C@H](C)NC(=O)[C@H](CC(=O)O)NC2=O (stereo partly drawn) [I-363, Ac-PL3-Asp-Ala-B5-Asp-Asp-Ala-Ala-His-Ala-S8-Phe-BztA-Gln-NH2] | 32 (≈ 56.3 µg/mL) | 2.09 | – | – |
| CC(=O)N1CCC[C@]12CC=CCCCC1(CCCC=CCCCCCC[C@@](C)(C(=O)N[C@@H](Cc3ccccc3)C(=O)N[C@@H](Cc3csc4ccccc34)C(=O)N[C@@H](CCC(N)=O)C(N)=O)NC(=O)[C@H](C)NC(=O)[C@H](Cc3c[nH]cn3)NC(=O)[C@H](C)NC(=O)[C@H](C)NC(=O)[C@H](CC(=O)O)NC(=O)[C@H](CC(=O)O)NC1=O)NC(=O)[C@H](C)NC(=O)[C@H](CC(=O)O)NC2=O (stereo partly drawn) [I-364, Ac-PL3-Asp-Ala-B5-Asp-Asp-Ala-Ala-His-Ala-S8-Phe-BztA-Gln-NH2] | 26 (≈ 45.8 µg/mL) | 2.137 | – | – |
| CC(=O)N1CCC[C@]12CC=CCCCC1(CCCC=CCCCCCC[C@@](C)(C(=O)N[C@@H](Cc3ccccn3)C(=O)N[C@@H](Cc3csc4ccccc34)C(=O)N[C@@H](CCC(N)=O)C(N)=O)NC(=O)[C@H](C(C)C)NC(=O)[C@H](Cc3ccccc3)NC(=O)[C@H](C)NC(=O)[C@H](C)NC(=O)[C@H](CCC(=O)O)NC(=O)[C@H](CC(=O)O)NC1=O)NC(=O)[C@H](C)NC(=O)[C@H](CC(=O)O)NC2=O (stereo partly drawn) [I-383, Ac-PL3-Asp-Ala-B5-Asp-Glu-Ala-Ala-Phe-Val-S8-2pyrA-BztA-Gln-NH2] | 36 (≈ 65.3 µg/mL) | 1.859 | – | – |

More lines, now with the values ahead:

| Solubility [1] [µM] | CHI Log D [2] | Solubility ([1]; Solubility (uM)) [µM] | chromatographic logD ([2]; pH 7.4, CHI Log D) | Compound |
| --- | --- | --- | --- | --- |
| 44 (≈ 80.6 µg/mL) | 2.191 | – | – | CC(=O)N1CCC[C@]12CC=CCCCC1(CCCC=CCCCCCC[C@@](C)(C(=O)N[C@@H](Cc3cccc4ccccc34)C(=O)N[C@@H](Cc3c[nH]c4ccccc34)C(=O)N[C@@H](CCC(N)=O)C(N)=O)NC(=O)[C@H](C(C)C)NC(=O)[C@H](Cc3ccccc3)NC(=O)[C@H](C)NC(=O)[C@H](C)NC(=O)[C@H](CC(=O)O)NC(=O)[C@H](CC(=O)O)NC1=O)NC(=O)[C@H](C)NC(=O)[C@H](CC(=O)O)NC2=O (stereo partly drawn) [I-275, Ac-PL3-Asp-Ala-B5-Asp-Asp-Ala-Ala-Phe-Val-S8-1NapA-Trp-Gln-NH2] |
| – | – | 40 (≈ 69.9 µg/mL) | 1.52 | CC(=O)N1CCC[C@]12CC=CCCCC1(CCCC=CCCCCCC[C@@](C)(C(=O)N[C@@H](CC(N)=O)C(=O)N[C@@H](Cc3c[nH]c4ccccc34)C(=O)N[C@@H](CCC(N)=O)C(N)=O)NC(=O)[C@H](C(C)C)NC(=O)[C@H](Cc3ccccc3)NC(=O)[C@H](C)NC(=O)[C@H](C)NC(=O)[C@H](CC(=O)O)NC(=O)[C@H](CC(=O)O)NC1=O)NC(=O)[C@H](C)NC(=O)[C@H](CC(=O)O)NC2=O (stereo partly drawn) [I-284, Ac-PL3-Asp-Ala-B5-Asp-Asp-Ala-Ala-Phe-Val-S8-Asn-Trp-Gln-NH2] |
| 41 (≈ 73.2 µg/mL) | 2.01 | – | – | CC(=O)N1CCC[C@]12CC=CCCCC1(CCCC=CCCCCCC[C@@](C)(C(=O)N[C@@H](Cc3ccccc3)C(=O)N[C@@H](Cc3c[nH]c4ccccc34)C(=O)N[C@@H](CCC(N)=O)C(N)=O)NC(=O)[C@H](C(C)C)NC(=O)[C@H](Cc3cn(C)cn3)NC(=O)[C@H](C)NC(=O)[C@H](C)NC(=O)[C@H](CC(=O)O)NC(=O)[C@H](CC(=O)O)NC1=O)NC(=O)[C@H](C)NC(=O)[C@H](CC(=O)O)NC2=O (stereo partly drawn) [I-329, Ac-PL3-Asp-Ala-B5-Asp-Asp-Ala-Ala-1meH-Val-S8-Phe-Trp-Gln-NH2] |
| 21 (≈ 37.5 µg/mL) | 2.047 | – | – | CC(=O)N1CCC[C@]12CC=CCCCC1(CCCC=CCCCCCC[C@@](C)(C(=O)N[C@@H](Cc3ccccc3)C(=O)N[C@@H](Cc3c[nH]c4ccccc34)C(=O)N[C@@H](CCC(N)=O)C(N)=O)NC(=O)[C@H](C(C)C)NC(=O)[C@H](Cc3cn(C)cn3)NC(=O)[C@H](C)NC(=O)[C@H](C)NC(=O)[C@H](CC(=O)O)NC(=O)[C@H](CC(=O)O)NC1=O)NC(=O)[C@H](C)NC(=O)[C@H](CC(=O)O)NC2=O (stereo partly drawn) [I-330, Ac-PL3-Asp-Ala-B5-Asp-Asp-Ala-Ala-1meH-Val-S8-Phe-Trp-Gln-NH2] |
| 46 (≈ 79.9 µg/mL) | 2.397 | – | – | CC(=O)N1CCC[C@]12CC=CCCCC1(CCCC=CCCCCCC[C@@](C)(C(=O)N[C@@H](Cc3ccccc3)C(=O)N[C@@H](Cc3c[nH]c4ccccc34)C(=O)N[C@@H](CCC(N)=O)C(N)=O)NC(=O)[C@H](C(C)C)NC(=O)[C@H](Cc3ccccc3)NC(=O)[C@H](C)NC(=O)[C@H](C)NC(=O)[C@H](CC(=O)O)NC(=O)[C@H](CC(=O)O)NC1=O)NC(=O)[C@H](C)NC(=O)[C@H](C)NC2=O (stereo partly drawn) [I-348, Ac-PL3-Ala-Ala-B5-Asp-Asp-Ala-Ala-Phe-Val-S8-Phe-Trp-Gln-NH2] |
| 49 (≈ 85.1 µg/mL) | 2.415 | – | – | CC(=O)N1CCC[C@]12CC=CCCCC1(CCCC=CCCCCCC[C@@](C)(C(=O)N[C@@H](Cc3ccccc3)C(=O)N[C@@H](Cc3c[nH]c4ccccc34)C(=O)N[C@@H](CCC(N)=O)C(N)=O)NC(=O)[C@H](C(C)C)NC(=O)[C@H](Cc3ccccc3)NC(=O)[C@H](C)NC(=O)[C@H](C)NC(=O)[C@H](CC(=O)O)NC(=O)[C@H](CC(=O)O)NC1=O)NC(=O)[C@H](C)NC(=O)[C@H](C)NC2=O (stereo partly drawn) [I-349, Ac-PL3-Ala-Ala-B5-Asp-Asp-Ala-Ala-Phe-Val-S8-Phe-Trp-Gln-NH2] |
| 48 (≈ 83.4 µg/mL) | 2.887 | – | – | CC(=O)N1CCC[C@]12CC=CCCCC1(CCCC=CCCCCCC[C@@](C)(C(=O)N[C@@H](Cc3ccccc3)C(=O)N[C@@H](Cc3c[nH]c4ccccc34)C(=O)N[C@@H](CCC(N)=O)C(N)=O)NC(=O)[C@H](C(C)C)NC(=O)[C@H](Cc3ccccc3)NC(=O)[C@H](C)NC(=O)[C@H](C)NC(=O)[C@H](CC(=O)O)NC(=O)[C@H](C)NC1=O)NC(=O)[C@H](C)NC(=O)[C@H](CC(=O)O)NC2=O (stereo partly drawn) [I-350, Ac-PL3-Asp-Ala-B5-Ala-Asp-Ala-Ala-Phe-Val-S8-Phe-Trp-Gln-NH2] |
| 50 (≈ 86.9 µg/mL) | 2.944 | – | – | CC(=O)N1CCC[C@]12CC=CCCCC1(CCCC=CCCCCCC[C@@](C)(C(=O)N[C@@H](Cc3ccccc3)C(=O)N[C@@H](Cc3c[nH]c4ccccc34)C(=O)N[C@@H](CCC(N)=O)C(N)=O)NC(=O)[C@H](C(C)C)NC(=O)[C@H](Cc3ccccc3)NC(=O)[C@H](C)NC(=O)[C@H](C)NC(=O)[C@H](CC(=O)O)NC(=O)[C@H](C)NC1=O)NC(=O)[C@H](C)NC(=O)[C@H](CC(=O)O)NC2=O (stereo partly drawn) [I-351, Ac-PL3-Asp-Ala-B5-Ala-Asp-Ala-Ala-Phe-Val-S8-Phe-Trp-Gln-NH2] |
| 49 (≈ 83.5 µg/mL) | 1.606 | – | – | CC(=O)N1CCC[C@]12CC=CCCCC1(CCCC=CCCCCCC[C@@](C)(C(=O)N[C@@H](C)C(=O)N[C@@H](Cc3c[nH]c4ccccc34)C(=O)N[C@@H](CCC(N)=O)C(N)=O)NC(=O)[C@H](C(C)C)NC(=O)[C@H](Cc3ccccc3)NC(=O)[C@H](C)NC(=O)[C@H](C)NC(=O)[C@H](CC(=O)O)NC(=O)[C@H](CC(=O)O)NC1=O)NC(=O)[C@H](C)NC(=O)[C@H](CC(=O)O)NC2=O (stereo partly drawn) [I-355, Ac-PL3-Asp-Ala-B5-Asp-Asp-Ala-Ala-Phe-Val-S8-Ala-Trp-Gln-NH2] |
| 50 (≈ 83.3 µg/mL) | 1.882 | – | – | CC(=O)N1CCC[C@]12CC=CCCCC1(CCCC=CCCCCCC[C@@](C)(C(=O)N[C@@H](Cc3ccccc3)C(=O)N[C@@H](C)C(=O)N[C@@H](CCC(N)=O)C(N)=O)NC(=O)[C@H](C(C)C)NC(=O)[C@H](Cc3ccccc3)NC(=O)[C@H](C)NC(=O)[C@H](C)NC(=O)[C@H](CC(=O)O)NC(=O)[C@H](CC(=O)O)NC1=O)NC(=O)[C@H](C)NC(=O)[C@H](CC(=O)O)NC2=O (stereo partly drawn) [I-358, Ac-PL3-Asp-Ala-B5-Asp-Asp-Ala-Ala-Phe-Val-S8-Phe-Ala-Gln-NH2] |
